Reference: article PMC8016166, “Identification of a Potent and Selective 5-HT1A Receptor Agonist with In Vitro and In Vivo Antinociceptive Activity” (ACS Chemical Neuroscience, 2020)

Experiments:
hERG = biological target: T1, hERG (Homo sapiens, UniProt Q12809); assay: CiPA hERG QPatch assay (hERG-CHO automated patch-clamp); assay type: cell-based; details: human, CHO cells expressing hERG (hERG-CHO), read-out: % inhibition of tail current in hERG-CHO
T1 construct: host or cells: CHO (hERG-CHO)
Source text: (§1) After whole cell configuration is achieved, the cell is held at −80 mV. A 500 ms pulse to −40 mV is delivered to measure the leaking current, which is subtracted from the tail current online. Then, the cell is depolarized to +40 mV for 500 ms and then to −80 mV over a 100 ms ramp to elicit the hERG tail current. This paradigm is delivered once every 8 s to monitor the current amplitude.
(§2) The parameters measured were the maximum tail current evoked on stepping to 40 mV and ramping back to −80 mV from the test pulse. All data were filtered for seal quality, seal drop, and current amplitude. The peak current amplitude was calculated before and after compound addition, and the amount of block was assessed by dividing the Test compound current amplitude by the Control current amplitude. Control is the mean hERG current amplitude collected 15 s at the end of the control; Test Compound is the mean hERG current amplitude collected in the presence of test compound at each concentration.

[1] = biological target: T2, human voltage gated potassium ion channel hERG (Homo sapiens, UniProt Q12809); assay: as above; assay type: cell-based; details: 0.1 and 1 μM, QPatch
T2 construct: host or cells: CHO (hERG-CHO)
Source text: as §1, §2

[2] = system: superficial dorsal horn neurons (lamina I–II); assay: Patch-clamp recording from spinal cord slices; assay type: cell-based, mouse; details: for neurons showing slow outward current: voltage clamp −60 mV
Description: The Italian Ministry of Health approved all the experiments that were conducted on postnatal CD1 mice (P18–P25) in accordance with the Guide for the Care and Use of Laboratory Animals and the EU and Italian regulations on animal welfare. The spinal cord slices were obtained following the procedure described previously.[69],[70] Briefly, the animals were anesthetized with isoflurane and decapitated, the spinal cord and vertebrae were rapidly removed and placed in ice-cold dissecting Krebs’ solution (composition in mM:125 NaCl, 2.5 KCl, 1.25 NaH2PO4, 26 NaHCO3, 25 glucose, 6 MgCl2, 1.5 CaCl2, and 1 kynurenic acid, pH 7.4, 320 mOsm), bubbled with 95% O2, 5% CO2. The lumbar spinal cord was isolated, embedded in an agarose block (low melting point agarose 3%, Thermo Fisher Scientific, Waltham, USA), and transverse slices (500 μm thick) were obtained using a vibrating microtome (WPI, Sarasota, USA). The slices were incubated in oxygenated incubation Krebs’ solution (the same as dissecting but without kynurenic acid) at 35 °C for 30 min and used for recording. The Patch-clamp recording in whole-cell configuration was performed on lamina I–II neurons at room temperature. The slices were perfused at 2 mL/min with recording Krebs’solution (in mM: 125 NaCl, 2.5 KCl, 1.25 NaH2PO4, 26 NaHCO3, 25 glucose, 1 MgCl2, and 2 CaCl2, pH 7.4, 320 mOsm). Recordings of post-synaptic currents (EPSCs) were performed in voltage clamp, by using an intracellular solution with the following composition (in mM): 120 potassium methanesulfonate, 10 NaCl, 10 EGTA, 1 CaCl2, 10 HEPES, 5 ATP-Mg, pH adjusted to 7.2 with KOH, osmolarity 300 mOsm. 8-OH-DPAT was obtained from Sigma-Aldrich (Saint Louis, USA). The data were recorded and acquired using a Multiclamp 700A amplifier and the pClamp 10 software (Molecular Devices, Sunnyvale, USA). The sampling rate was 10 kHz, and the data were filtered at 2 kHz. The data were analyzed off-line using pClamp10 software and Minianalysis (Synaptosoft, USA). The data are expressed as the mean ± SEM and differences were considered significant for p < 0.05. The statistical significance for the effect on EPSC frequency was determined using the Kolmogorov–Smirnov test on individual neurons.

5-HT1AR = system: 5-HT1AR; design: method as in PMID 30043643; details: previous work, cited from earlier work; for potency pD2: agonist, GTPγS assay
Male Swiss CB1 mice = assay: Formalin test; assay type: in vivo, mouse
Description: Male Swiss CB1 mice (Envigo, S. Pietro al Natisone (UD)) weighing 25–30 g were used. The animals were kept at a constant room temperature (25 ± 1 °C) under a 12:12 h light and dark cycle, with free access to food and water. Each mouse was used for only one experiment. […] All the tests were performed blind to treatment.
The formalin (5%, 10 μL; Sigma-Aldrich) was injected subcutaneously into the plantar side of the right hind paw.[68] After injection, the mice were immediately placed in a plexiglas box: the total time (in seconds) spent on licking or biting the injected hind paw was recorded every 5 min at selected intervals, 0–10 (phase I) and 10–60 (phase II) min, in the different experimental groups, as an indicator of nociceptive behavior. […] A mean response was then calculated for each phase. […] A vehicle solution containing 10% DMSO was given as a control. Morphine was used as positive control. The test compound and vehicle were […] (i.p.) administered (5 mL/kg) 15 min before the formalin. […] The data are expressed as mean values (SEM). Analyses of variance (two-way repeated measures ANOVA followed by post hoc Bonferroni test) were performed to assess significance using the Instat 3.0 software (GraphPad Software, San Diego, CA). p < 0.05 was considered significant.

MDCK-MDR1 monolayers = system: MDCK-MDR1 monolayers; design: method as in PMID 30043643; details: cited from earlier work

T1 sequence (Q12809 whole entry): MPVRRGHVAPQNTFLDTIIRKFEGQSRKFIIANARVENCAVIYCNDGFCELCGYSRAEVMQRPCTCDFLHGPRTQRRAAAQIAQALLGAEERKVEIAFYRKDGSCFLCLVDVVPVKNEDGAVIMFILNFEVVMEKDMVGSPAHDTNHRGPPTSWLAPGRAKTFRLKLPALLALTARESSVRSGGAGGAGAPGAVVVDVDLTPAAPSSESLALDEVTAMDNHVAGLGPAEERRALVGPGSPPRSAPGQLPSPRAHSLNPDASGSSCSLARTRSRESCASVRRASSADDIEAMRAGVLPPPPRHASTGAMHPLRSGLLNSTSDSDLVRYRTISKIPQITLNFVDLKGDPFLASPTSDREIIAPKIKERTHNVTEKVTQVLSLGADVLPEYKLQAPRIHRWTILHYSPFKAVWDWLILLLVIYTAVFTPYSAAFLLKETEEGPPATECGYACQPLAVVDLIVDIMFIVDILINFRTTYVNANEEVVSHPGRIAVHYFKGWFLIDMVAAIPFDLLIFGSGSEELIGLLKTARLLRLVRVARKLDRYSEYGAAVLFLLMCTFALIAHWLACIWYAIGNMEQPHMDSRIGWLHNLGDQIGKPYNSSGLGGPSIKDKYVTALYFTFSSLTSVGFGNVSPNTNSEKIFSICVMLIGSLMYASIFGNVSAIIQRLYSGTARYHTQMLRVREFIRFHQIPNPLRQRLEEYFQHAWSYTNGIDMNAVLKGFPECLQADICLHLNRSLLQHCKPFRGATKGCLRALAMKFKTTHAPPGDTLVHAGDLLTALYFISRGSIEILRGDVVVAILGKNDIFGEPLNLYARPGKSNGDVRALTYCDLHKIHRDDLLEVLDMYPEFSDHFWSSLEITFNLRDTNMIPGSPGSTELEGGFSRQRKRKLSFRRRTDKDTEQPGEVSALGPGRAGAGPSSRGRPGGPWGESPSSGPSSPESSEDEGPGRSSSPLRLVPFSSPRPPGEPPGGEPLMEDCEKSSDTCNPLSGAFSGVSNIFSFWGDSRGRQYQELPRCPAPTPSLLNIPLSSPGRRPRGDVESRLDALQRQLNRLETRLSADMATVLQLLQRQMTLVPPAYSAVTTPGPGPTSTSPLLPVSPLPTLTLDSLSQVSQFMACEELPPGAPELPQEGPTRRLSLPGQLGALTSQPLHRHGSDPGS
T2 sequence (Q12809 whole entry): as above

In the case of `c1ccc(C2(c3ccccc3)OC[C@H](CNCCOc3ccccc3-c3ccncc3)O2)cc1` [(S)-1, N-[(2,2-Diphenyl-1,3-dioxolan-4-yl)methyl]-2-[2-(pyridin-4-yl)phenoxy]ethan-1-ammonium hydrogenoxalate], the inhibition at 0.1 µM (hERG; 0.1 μM) is reported as -3.35%, the inhibition at 1 µM (hERG; 1 μM) is reported as 5.61% and the inhibition at 10 µM (hERG; 10 μM) is reported as 66.7%. The hERG inhibition [1] was “does not inhibit hERG”, the “neurons showing sEPSC frequency decrease” value ([2]; 10 μM) was 5 out of 12 and the “neurons showing outward current in presence of naloxone” value ([2]; 10 μM (S)-1, naloxone present) was 5 out of 12. The “neurons showing significant decrease in sEPSC frequency in presence of naloxone” value ([2]; 10 μM (S)-1, naloxone present) was 6 out of 12, the “outward current in presence of WAY-100635” value ([2]; (S)-1 with WAY-100635 10 μM, 7 neurons tested) was “failed to evoke the outward currents” and the “neurons showing slow outward current” value ([2]; bath application 10 μM) was 5 out of 12.
For `Cn1cncc1-c1ccccc1OCCNCC1COC(c2ccccc2)(c2ccccc2)O1` (racemic) [rac-2, N-((2,2-diphenyl-1,3-dioxolan-4-yl)methyl)-2-(2-(1-methyl-1H-imidazol-5-yl)phenoxy)ethan-1-ammonium hydrogenoxalate], the “potency pD2” value (5-HT1AR) is listed as 5.46 and the “relative effectiveness (Emax)” value (5-HT1AR) is listed as 240%.
For `c1ccc(C2(c3ccccc3)OCC(CNCCOc3ccccc3-c3ccncc3)O2)cc1` (racemic) [rac-1, N-[(2,2-diphenyl-1,3-dioxolan-4-yl)methyl]-2-[2-(pyridin-4-yl)phenoxy]ethan-1-ammonium hydrogenoxalate], the “analgesic effect in first and second phases of the formalin test” value (Male Swiss CB1 mice; 10 mg/kg i.p., formalin 5% 10 μL intraplantar) was “significant analgesic effects”, the “analgesic effect after pretreatment with WAY-100635” value (Male Swiss CB1 mice; 1 10 mg/kg i.p., WAY-100635 3 mg/kg i.p. 30 min before, second phase) was “prevented its analgesic effect” and the “neurons showing sEPSC frequency decrease” value ([2]; 50 μM) was 7 out of 23. For the same compound, the “neurons showing slow outward current” value ([2]; 50 μM) was 5 out of 23, the “neurons showing slow outward current” value ([2]; bath application 10 μM) was “not effective” and the “potency pD2” value (5-HT1AR) was 8.83. For the same compound, the efflux ratio (MDCK-MDR1 monolayers; MDCK-MDR1 monolayers) was “low” and the “permeation of MDCK-MDR1 monolayers mimicking the BBB” value (MDCK-MDR1 monolayers) was “permeate, by passive diffusion”.
